Measured values from ChEMBL document CHEMBL1201862, “PubChem BioAssay data set” (2004).
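Cells were grown in 96-well plates and exposed to each compound for 48 hours at five concentrations; endpoints were interpolated linearly between bracketing concentrations, or set to the highest concentration if not reached. GI50 is the concentration that inhibits growth by half.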 Active and inactive are the calls of the source. Rule as the data show it: active = GI50 up to about 1.1 µM and inactive = higher.

Assays:
Assay in all cases: NCI anticancer screen, dose series, 48 h
DU-145 = system: DU-145
NCI-H226 = system: NCI-H226
BT-549 = system: BT-549
M14 = system: M14
T47D = system: T47D
HCT-116 = system: HCT-116
SK-OV-3 = system: SK-OV-3
HCT-15 = system: HCT-15
ACHN = system: ACHN
NCI-H522 = system: NCI-H522
NCI-H23 = system: NCI-H23
COLO 205 = system: COLO 205
MDA-MB-231 = system: MDA-MB-231
UACC-62 = system: UACC-62
HOP-62 = system: HOP-62
NCI-H460 = system: NCI-H460
LOX IMVI = system: LOX IMVI
TK-10 = system: TK-10
SK-MEL-5 = system: SK-MEL-5
EKVX = system: EKVX
A498 = system: A498
KM12 = system: KM12
HCC 2998 = system: HCC 2998
HL-60 = system: HL-60
MDA-N = system: MDA-N
HOP-92 = system: HOP-92
K562 = system: K562
Hs-578T = system: Hs-578T
MCF7 = system: MCF7
OVCAR-3 = system: OVCAR-3
A549 = system: A549
SF-268 = system: SF-268
CAKI-1 = system: CAKI-1
SW-620 = system: SW-620
SK-MEL-2 = system: SK-MEL-2
UACC-257 = system: UACC-257
MOLT-4 = system: MOLT-4
RPMI-8226 = system: RPMI-8226
OVCAR-8 = system: OVCAR-8
786-0 = system: 786-0
U-251 = system: U-251
OVCAR-4 = system: OVCAR-4
IGROV-1 = system: IGROV-1
SF-539 = system: SF-539
OVCAR-5 = system: OVCAR-5
HT-29 = system: HT-29
SNB-19 = system: SNB-19
MDA-MB-435 = system: MDA-MB-435
UO-31 = system: UO-31
PC-3 = system: PC-3
RXF 393 = system: RXF 393
CCRF-CEM = system: CCRF-CEM
NCI/ADR-RES = system: NCI/ADR-RES
SK-MEL-28 = system: SK-MEL-28
SNB-75 = system: SNB-75
SF-295 = system: SF-295
Malme-3M = system: Malme-3M
SN12C = system: SN12C

CC(=O)NNc1nc(C)c(C(/C=C/c2cccc([N+](=O)[O-])c2)=N/NC(=S)NN)s1
GI50 (DU-145): > 100 µM (inactive) | GI50 (NCI-H226): > 100 µM (inactive) | GI50 (BT-549): > 100 µM (inactive) | GI50 (M14): > 100 µM (inactive) | GI50 (T47D): > 100 µM (inactive) | GI50 (HCT-116): > 100 µM (inactive) | GI50 (SK-OV-3): > 100 µM (inactive) | GI50 (HCT-15): > 100 µM | GI50 (ACHN): > 100 µM (inactive) | GI50 (NCI-H522): > 100 µM (inactive) | GI50 (NCI-H23): > 100 µM (inactive) | GI50 (COLO 205): > 100 µM (inactive) | GI50 (MDA-MB-231): > 100 µM (inactive) | GI50 (UACC-62): > 100 µM (inactive) | GI50 (HOP-62): 91 µM (inactive) | GI50 (NCI-H460): > 100 µM (inactive) | GI50 (LOX IMVI): > 100 µM (inactive) | GI50 (TK-10): > 100 µM (inactive) | GI50 (SK-MEL-5): > 100 µM (inactive) | GI50 (EKVX): 52.1 µM (inactive) | GI50 (A498): > 100 µM (inactive) | GI50 (KM12): > 100 µM (inactive) | GI50 (HCC 2998): > 100 µM (inactive) | GI50 (HL-60): > 100 µM (inactive) | GI50 (MDA-N): > 100 µM (inactive) | GI50 (HOP-92): > 100 µM (inactive) | GI50 (K562): > 100 µM (inactive) | GI50 (Hs-578T): > 100 µM (inactive) | GI50 (MCF7): > 100 µM (inactive) | GI50 (OVCAR-3): > 100 µM (inactive) | GI50 (A549): > 100 µM (inactive) | GI50 (SF-268): > 100 µM (inactive) | GI50 (CAKI-1): > 100 µM (inactive) | GI50 (SW-620): > 100 µM (inactive) | GI50 (SK-MEL-2): > 100 µM (inactive) | GI50 (UACC-257): > 100 µM (inactive) | GI50 (MOLT-4): > 100 µM (inactive) | GI50 (RPMI-8226): > 100 µM (inactive) | GI50 (OVCAR-8): > 100 µM (inactive) | GI50 (786-0): > 100 µM (inactive) | GI50 (U-251): > 100 µM (inactive) | GI50 (OVCAR-4): > 100 µM (inactive) | GI50 (IGROV-1): > 100 µM (inactive) | GI50 (SF-539): > 100 µM (inactive) | GI50 (OVCAR-5): > 100 µM (inactive) | GI50 (HT-29): > 100 µM (inactive) | GI50 (SNB-19): > 100 µM (inactive) | GI50 (MDA-MB-435): > 100 µM (inactive) | GI50 (UO-31): > 100 µM (inactive) | GI50 (PC-3): > 100 µM (inactive) | GI50 (RXF 393): > 100 µM (inactive) | GI50 (CCRF-CEM): > 100 µM (inactive) | GI50 (NCI/ADR-RES): > 100 µM (inactive) | GI50 (SK-MEL-28): > 100 µM (inactive) | GI50 (SNB-75): > 100 µM (inactive) | GI50 (SF-295): > 100 µM (inactive) | GI50 (Malme-3M): > 100 µM (inactive) | GI50 (SN12C): > 100 µM (inactive)

CCOP(=O)(/C=C/n1ccc(N)nc1=O)OCC
GI50 (DU-145): > 100 µM (inactive) | GI50 (NCI-H226): 97.9 µM (inactive) | GI50 (BT-549): > 100 µM (inactive) | GI50 (M14): > 100 µM (inactive) | GI50 (T47D): > 100 µM (inactive) | GI50 (HCT-116): > 100 µM (inactive) | GI50 (SK-OV-3): > 100 µM (inactive) | GI50 (HCT-15): > 100 µM | GI50 (ACHN): > 100 µM (inactive) | GI50 (NCI-H522): > 100 µM (inactive) | GI50 (NCI-H23): > 100 µM (inactive) | GI50 (COLO 205): > 100 µM (inactive) | GI50 (MDA-MB-231): > 100 µM (inactive) | GI50 (UACC-62): > 100 µM (inactive) | GI50 (HOP-62): > 100 µM (inactive) | GI50 (NCI-H460): > 100 µM (inactive) | GI50 (LOX IMVI): > 100 µM (inactive) | GI50 (TK-10): > 100 µM (inactive) | GI50 (SK-MEL-5): > 100 µM (inactive) | GI50 (EKVX): > 100 µM (inactive) | GI50 (A498): > 100 µM (inactive) | GI50 (KM12): > 100 µM (inactive) | GI50 (HL-60): > 100 µM (inactive) | GI50 (MDA-N): > 100 µM (inactive) | GI50 (K562): > 100 µM (inactive) | GI50 (Hs-578T): > 100 µM (inactive) | GI50 (MCF7): > 100 µM (inactive) | GI50 (OVCAR-3): > 100 µM (inactive) | GI50 (A549): > 100 µM (inactive) | GI50 (SF-268): > 100 µM (inactive) | GI50 (CAKI-1): > 100 µM (inactive) | GI50 (SW-620): > 100 µM (inactive) | GI50 (SK-MEL-2): > 100 µM (inactive) | GI50 (UACC-257): > 100 µM (inactive) | GI50 (MOLT-4): > 100 µM (inactive) | GI50 (RPMI-8226): > 100 µM (inactive) | GI50 (OVCAR-8): > 100 µM (inactive) | GI50 (786-0): > 100 µM (inactive) | GI50 (U-251): > 100 µM (inactive) | GI50 (OVCAR-4): > 100 µM (inactive) | GI50 (IGROV-1): > 100 µM (inactive) | GI50 (SF-539): > 100 µM (inactive) | GI50 (OVCAR-5): > 100 µM (inactive) | GI50 (HT-29): > 100 µM (inactive) | GI50 (SNB-19): > 100 µM (inactive) | GI50 (MDA-MB-435): > 100 µM (inactive) | GI50 (PC-3): > 100 µM (inactive) | GI50 (RXF 393): > 100 µM (inactive) | GI50 (CCRF-CEM): > 100 µM (inactive) | GI50 (NCI/ADR-RES): > 100 µM (inactive) | GI50 (SK-MEL-28): > 100 µM (inactive) | GI50 (SNB-75): > 100 µM (inactive) | GI50 (SF-295): > 100 µM (inactive) | GI50 (SN12C): > 100 µM (inactive)

COC(=O)Nc1nc2cc(NC(=O)c3ccc(I)cc3)ccc2[nH]1
GI50 (DU-145): > 100 µM (inactive) | GI50 (NCI-H226): > 100 µM (inactive) | GI50 (BT-549): > 100 µM (inactive) | GI50 (M14): > 100 µM (inactive) | GI50 (T47D): > 100 µM (inactive) | GI50 (HCT-116): > 100 µM (inactive) | GI50 (SK-OV-3): > 100 µM (inactive) | GI50 (HCT-15): > 100 µM | GI50 (ACHN): > 100 µM (inactive) | GI50 (NCI-H522): 24.7 µM (inactive) | GI50 (NCI-H23): > 100 µM (inactive) | GI50 (COLO 205): > 100 µM (inactive) | GI50 (MDA-MB-231): > 100 µM (inactive) | GI50 (UACC-62): > 100 µM (inactive) | GI50 (HOP-62): > 100 µM (inactive) | GI50 (NCI-H460): > 100 µM (inactive) | GI50 (LOX IMVI): > 100 µM (inactive) | GI50 (TK-10): > 100 µM (inactive) | GI50 (SK-MEL-5): > 100 µM (inactive) | GI50 (EKVX): > 100 µM (inactive) | GI50 (A498): > 100 µM (inactive) | GI50 (KM12): > 100 µM (inactive) | GI50 (HL-60): > 100 µM (inactive) | GI50 (MDA-N): > 100 µM (inactive) | GI50 (HOP-92): > 100 µM (inactive) | GI50 (K562): > 100 µM (inactive) | GI50 (Hs-578T): 84.1 µM (inactive) | GI50 (MCF7): > 100 µM (inactive) | GI50 (OVCAR-3): > 100 µM (inactive) | GI50 (A549): > 100 µM (inactive) | GI50 (SF-268): > 100 µM (inactive) | GI50 (CAKI-1): > 100 µM (inactive) | GI50 (SW-620): > 100 µM (inactive) | GI50 (SK-MEL-2): > 100 µM (inactive) | GI50 (UACC-257): > 100 µM (inactive) | GI50 (MOLT-4): > 100 µM (inactive) | GI50 (RPMI-8226): > 100 µM (inactive) | GI50 (OVCAR-8): > 100 µM (inactive) | GI50 (786-0): > 100 µM (inactive) | GI50 (U-251): > 100 µM (inactive) | GI50 (OVCAR-4): > 100 µM (inactive) | GI50 (IGROV-1): > 100 µM (inactive) | GI50 (SF-539): > 100 µM (inactive) | GI50 (OVCAR-5): > 100 µM (inactive) | GI50 (HT-29): > 100 µM (inactive) | GI50 (SNB-19): > 100 µM (inactive) | GI50 (MDA-MB-435): > 100 µM (inactive) | GI50 (UO-31): > 100 µM (inactive) | GI50 (PC-3): > 100 µM (inactive) | GI50 (RXF 393): > 100 µM (inactive) | GI50 (CCRF-CEM): > 100 µM (inactive) | GI50 (NCI/ADR-RES): > 100 µM (inactive) | GI50 (SK-MEL-28): > 100 µM (inactive) | GI50 (SNB-75): 96.8 µM (inactive) | GI50 (SF-295): > 100 µM (inactive) | GI50 (Malme-3M): 72.6 µM (inactive) | GI50 (SN12C): > 100 µM (inactive)
